Legend:
[1] = tested on: K562 cells (a myelogenous leukemia cell line); experiment: Cancer cell proliferation, oligonucleotide in LIPOFECTAMINE, 48 hours, direct cell counting; assay type: cell-based, human; conditions: P<0.05
Experimental: (§1) FIG. 3 is a graph showing the effect of sense and antisense ERV-9 U3 oligonucleotides (SEQ ID NOs: 1 and 2, respectively) on proliferation of K562 cells (a myelogenous leukemia cell line). Cells (4×10^4) were treated with ERV-9 U3 sense or antisense oligonucleotide formulated in LIPOFECTAMINE™ at the concentrations shown for 48 hours.
(§2) To test the effect of the sense and antisense ERV-9 U3 oligonucleotides on proliferation of cancer cells, six different cancer cell lines were selected for transfection studies: HT1080, fibrosarcoma cells (FIG. 1); MDA-231, breast cancer cells (FIG. 2); K562, myelogenous leukemia cells (FIG. 3); LNcaP, prostate cancer cells (FIG. 4); HepG2, hepatocellular carcinoma cells (FIG. 5); and MCF-7, breast cancer cells (FIG. 6). Cells (4×10^4) were treated with ERV-9 U3 sense or antisense oligonucleotide formulated in LIPOFECTAMINE™ at an oligonucleotide concentration of 10, 20 or 30 μg/ml for 48 hours. Green fluorescent protein (GFP) sense oligonucleotide ([…]; SEQ ID NO: 3) was used as a control to measure the non-specific cytotoxicity of phosphorothioate-based oligonucleotides. Antisense oligonucleotides specific for Bcl-2 (G3139; TCTCCCAGCGTGCGCCAT; SEQ ID NO: 4), telomerase (GRN163; TAGGGTTAGACAA; SEQ ID NO: 5), and MDM2 ([…]; SEQ ID NO: 6) were also evaluated. […] After 48 hours of oligonucleotide treatment, cell proliferation was assessed by direct cell counting. Cell proliferation levels were expressed relative to cells transfected with 10 μg/ml GFP control oligonucleotide.

[2] = tested on: LNcaP cells (a prostate cancer cell line); experiment: as above; assay type: cell-based, human; conditions: oligonucleotide 10, 20 or 30 μg/ml
[3] = tested on: MCF-7 cells (a breast cancer cell line); experiment: as above; assay type: cell-based, human; conditions: P<0.05; for cell proliferation compared with G3139, GRN163 and MDM2 antisense oligonucleotides: oligonucleotide 30 μg/ml; for cell proliferation relative to GFP oligonucleotide: oligonucleotide 10, 20 or 30 μg/ml
Experimental: as §1, with “FIG. 6” for “FIG. 3”, “of MCF-7” for “of K562”, “(a breast cancer” for “(a myelogenous leukemia”
as §2

HT1080 cells = experiment: Cancer cell proliferation, oligonucleotide in combination with VP16, 48 hours; assay type: cell-based, human; conditions: oligonucleotide 15 μg/ml with VP16 30 ng/ml and 50 ng/ml, P<0.05
Experimental: FIG. 7 is a graph showing proliferation of HT1080 cells treated with ERV-9 U3 sense or antisense oligonucleotide (SEQ ID NOs: 1 and 2, respectively), in combination with VP16 (also known as etoposide). Cells (4×10^4) were treated with oligonucleotide (15 μg/ml) alone or in combination with the concentrations of VP16 shown for 48 hours. Cell proliferation levels were expressed relative to the percentage of GFP oligonucleotide control in the absence of VP16.
(§3) To test the effect of treating cancer cells with the combination of ERV-9 U3 oligonucleotide and VP16, six different cancer cell lines were analyzed: HT1080, (FIG. 7); MDA-231 (FIG. 8); K562 (FIG. 9); LNcaP (FIG. 10); HepG2 (FIG. 11); and MCF-7 (FIG. 12). Cells (4×10^4) were treated with 15 μg/ml ERV-9 U3 sense (SEQ ID NO: 1) or antisense (SEQ ID NO: 2) oligonucleotide alone or in combination with VP16 at a concentration of 30 ng/ml or 50 ng/ml. After 48 hours, cell proliferation was assessed by direct cell counting. Cell proliferation levels were expressed relative to GFP oligonucleotide control in the absence of VP16.

MDA-231 cells = experiment: as above; assay type: cell-based, human; conditions: oligonucleotide 15 μg/ml with VP16 30 ng/ml and 50 ng/ml, P<0.05
K562 cells = experiment: as above; assay type: cell-based, human; conditions: oligonucleotide 15 μg/ml with VP16 30 ng/ml and 50 ng/ml, P<0.05
Experimental: (§4) FIG. 9 is a graph showing proliferation of K562 cells treated with ERV-9 U3 sense or antisense oligonucleotide (SEQ ID NOs: 1 and 2, respectively), in combination with VP16. Cells (4×10^4) were treated with oligonucleotide (15 μg/ml) alone or in combination with the concentrations of VP16 shown for 48 hours.
as §3

LNcaP cells = experiment: as above; assay type: cell-based, human; conditions: oligonucleotide 15 μg/ml with VP16 30 ng/ml and 50 ng/ml
Experimental: as §4, with “FIG. 10” for “FIG. 9”, “of LNcaP” for “of K562”
as §3

HepG2 cells = experiment: as above; assay type: cell-based, human; conditions: oligonucleotide 15 μg/ml with VP16 30 ng/ml and 50 ng/ml, P<0.05
Experimental: as §4, with “FIG. 11” for “FIG. 9”, “of HepG2” for “of K562”
as §3

[4] = tested on: human primary lymphocytes; experiment: Proliferation of normal human primary cells, 48 hours; assay type: cell-based; conditions: 20 μg/ml, P>0.05
Experimental: FIG. 14 is a graph showing the effect of ERV-9 U3 sense and antisense oligonucleotides (SEQ ID NOs: 1 and 2, respectively) on human primary lymphocytes. Cells (4×10^4) were transfected with ERV-9 U3 sense or antisense oligonucleotide formulated in LIPOFECTAMINE™ at a concentration of 20 μg/ml for 48 hours.
To determine whether the inhibitory effect of ERV-9 U3 oligonucleotides is specific to cancer cells, human primary keratinocytes (FIG. 13), lymphocytes (FIG. 14), or monocytes (FIG. 15) were treated with ERV-9 U3 sense or antisense oligonucleotide and cell proliferation was evaluated. Cells (4×10^4) were transfected with ERV-9 U3 sense or antisense oligonucleotide (SEQ ID NOs: 1 and 2, respectively) formulated in LIPOFECTAMINE™ at a concentration of 20 μg/ml. GFP oligonucleotide was used as non-specific phosphorothioate oligonucleotide control. After 48 hours, cell proliferation was assessed by direct cell counting. Cell proliferation levels were expressed relative to GFP control.

[5] = oligonucleotide 10 μg/ml and 20 μg/ml

Substance	cell proliferation relative to GFP oligonucleotide [1, 5]	cell proliferation relative to GFP oligonucleotide ([1]; oligonucleotide 30 μg/ml)	cell proliferation relative to GFP oligonucleotide [2]	cell proliferation compared with G3139, GRN163 and MDM2 antisense oligonucleotides [3]	cell proliferation relative to GFP oligonucleotide [3]	cell proliferation relative to GFP oligonucleotide control (HT1080 cells)	cell proliferation relative to GFP oligonucleotide control (MDA-231 cells)	cell proliferation relative to GFP oligonucleotide control (K562 cells)	cell proliferation relative to GFP oligonucleotide control (LNcaP cells)	cell proliferation relative to GFP oligonucleotide control (HepG2 cells)	cell proliferation relative to control GFP oligonucleotide [4]
U3AS: ERV-9 LTR U3 antisense oligonucleotide CTGATTGGTGTGTTTACAAACCTTGAG, phosphorothioate internucleoside linkages at each position (all phosphorothioate, sugars by position and methylation of C not given here) [Oligo U3AS]	inhibited cell proliferation better than GFP control oligonucleotide	inhibited proliferation better than GFP control and G3139, GRN163 and MDM2 antisense oligonucleotides	inhibited cell proliferation better than GFP control oligonucleotide at all three oligonucleotide concentrations	inhibited proliferation better than G3139, GRN163 and MDM2 antisense oligonucleotides	inhibited cell proliferation better than GFP control oligonucleotide at all three concentrations	inhibited cell proliferation better than GFP control and G3139, GRN163 and MDM2 antisense oligonucleotides	inhibited cell proliferation better than GFP control and G3139, GRN163 and MDM2 antisense oligonucleotides	inhibited cell proliferation better than GFP control and G3139, GRN163 and MDM2 antisense oligonucleotides	inhibited cell proliferation better than GFP oligonucleotide	inhibited cell proliferation better than GFP control and G3139, GRN163 and MDM2 antisense oligonucleotides	did not inhibit cell proliferation relative to control GFP oligonucleotide
U3S: ERV-9 LTR U3 sense oligonucleotide CTCAAGGTTTGTAAACACACCAATCAG, phosphorothioate internucleoside linkages at each position (all phosphorothioate, sugars by position and methylation of C not given here) [Oligo U3S]	inhibited cell proliferation better than GFP control oligonucleotide	inhibited proliferation better than GFP control and G3139, GRN163 and MDM2 antisense oligonucleotides	inhibited cell proliferation better than GFP control oligonucleotide at all three oligonucleotide concentrations	inhibited proliferation better than G3139, GRN163 and MDM2 antisense oligonucleotides	inhibited cell proliferation better than GFP control oligonucleotide at all three concentrations	inhibited cell proliferation better than GFP control and G3139, GRN163 and MDM2 antisense oligonucleotides	inhibited cell proliferation better than GFP oligonucleotide	inhibited cell proliferation better than GFP control and G3139, GRN163 and MDM2 antisense oligonucleotides	inhibited cell proliferation better than GFP oligonucleotide	inhibited cell proliferation better than GFP control and G3139, GRN163 and MDM2 antisense oligonucleotides	did not inhibit cell proliferation relative to control GFP oligonucleotide
